Test results as given in ChEMBL document CHEMBL4371025, “Discovery and evaluation of novel FAAH inhibitors in neuropathic pain model” (Bioorg Med Chem Lett, 2019).
Active and inactive are the calls of the source. No cut-off for these calls is given here.

Tests used:
[1] = target: T1, Fatty-acid amide hydrolase 1 (Rattus norvegicus) (UniProt P97612); test: Inhibition of rat FFAH expressed in Escherichia coli at 10 uM using AAMCA as substrate incubated for 1 min measured for 50 mins by fluorescence assay relative to control
T1 sequence (whole entry): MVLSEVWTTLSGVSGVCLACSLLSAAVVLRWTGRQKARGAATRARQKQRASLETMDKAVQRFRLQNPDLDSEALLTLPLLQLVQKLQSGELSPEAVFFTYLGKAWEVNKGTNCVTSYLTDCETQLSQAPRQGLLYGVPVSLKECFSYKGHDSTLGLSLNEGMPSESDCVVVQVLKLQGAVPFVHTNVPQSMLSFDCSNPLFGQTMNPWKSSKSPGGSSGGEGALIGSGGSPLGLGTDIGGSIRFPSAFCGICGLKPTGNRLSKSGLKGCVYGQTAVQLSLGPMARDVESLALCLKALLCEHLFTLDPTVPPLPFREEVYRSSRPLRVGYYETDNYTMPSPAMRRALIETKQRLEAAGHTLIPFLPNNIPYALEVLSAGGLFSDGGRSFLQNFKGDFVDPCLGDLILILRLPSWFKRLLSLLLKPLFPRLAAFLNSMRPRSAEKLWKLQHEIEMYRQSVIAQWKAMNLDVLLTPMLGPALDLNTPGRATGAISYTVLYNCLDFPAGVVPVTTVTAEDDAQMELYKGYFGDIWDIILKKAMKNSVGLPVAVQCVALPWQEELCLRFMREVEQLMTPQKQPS

[2] = Intrinsic metabolic stability in human liver microsomes assessed as metabolic turnover rate per mg protein at 1 uM preincubated for 5 mins followed by NADPH cofactor addition and measured after 30 mins by LC-MS/MS analysis; format: ADME, Microsome; conditions: 0.5 h
[3] = target: T2, Fatty-acid amide hydrolase 1 (Rattus norvegicus, UniProt P97612); test: Inhibition of rat FFAH expressed in Escherichia coli using AAMCA as substrate incubated for 1 min measured for 50 mins by fluorescence assay
T2 sequence (P97612 whole entry): T1 sequence (whole entry)

[4] = Intrinsic metabolic stability in rat liver microsomes assessed as metabolic turnover over per mg protein at 1 uM preincubated for 5 mins followed by NADPH cofactor addition and measured after 30 mins by LC-MS/MS analysis; format: ADME, Microsome; conditions: 0.5 h
[5] = target: T3, Fatty-acid amide hydrolase 1 (Homo sapiens, UniProt O00519); test: Inhibition of human transmembrane domain deficient FFAH expressed in Escherichia coli using AAMCA as substrate incubated for 1 min measured for 50 mins by fluorescence assay
T3 sequence (O00519 whole entry): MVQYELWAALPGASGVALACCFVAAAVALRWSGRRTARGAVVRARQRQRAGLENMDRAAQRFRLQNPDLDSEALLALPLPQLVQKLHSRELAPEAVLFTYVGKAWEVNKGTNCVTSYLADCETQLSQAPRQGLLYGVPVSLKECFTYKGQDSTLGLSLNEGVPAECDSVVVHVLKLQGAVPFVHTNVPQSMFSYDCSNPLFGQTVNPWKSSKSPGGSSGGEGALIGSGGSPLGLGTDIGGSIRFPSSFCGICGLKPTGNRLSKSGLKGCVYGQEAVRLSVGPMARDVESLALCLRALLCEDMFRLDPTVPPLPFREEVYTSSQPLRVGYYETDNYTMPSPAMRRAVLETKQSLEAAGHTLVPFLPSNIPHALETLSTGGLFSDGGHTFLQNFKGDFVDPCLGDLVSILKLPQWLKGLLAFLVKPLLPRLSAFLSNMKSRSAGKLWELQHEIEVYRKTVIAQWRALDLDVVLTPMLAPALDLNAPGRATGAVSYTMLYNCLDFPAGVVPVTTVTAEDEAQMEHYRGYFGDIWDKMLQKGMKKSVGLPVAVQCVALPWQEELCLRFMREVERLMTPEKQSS

[6] = target: T4, Fatty-acid amide hydrolase 1 (Homo sapiens) (UniProt O00519); test: Reversible inhibition of human transmembrane domain deficient FFAH expressed in Escherichia coli assessed as residual activity at 10 times IC50 using AAMCA as substrate preincubated for 1 hr followed by substrate addition and subsequent 10 fold compound dilution by fluorescence assay relative to control
T4 sequence (whole entry): T3 sequence (O00519 whole entry)

[7] = target: T1, Fatty-acid amide hydrolase 1 (Rattus norvegicus); test: Inhibition of rat FFAH expressed in Escherichia coli at 100 nM using AAMCA as substrate incubated for 1 min measured for 50 mins by fluorescence assay relative to control
Rattus norvegicus [8] = test: Antihyperalgesic activity in Sprague-Dawley rat model of cisplatin-induced peripheral neuropathy assessed as increase in paw withdrawal latency at 40 mg/kg, po administered once daily via gavage for 7 days measured 4 hrs post last dose by plantar test; format: functional, organism-based
[9] = Clearance in Sprague-Dawley rat at 1 mg/kg, iv administered as single dose by LC-MS/MS analysis; format: ADME, organism-based; conditions: in vivo
[10] = Volume of distribution at steady state in Sprague-Dawley rat at 1 mg/kg, iv administered as single dose by LC-MS/MS analysis; format: ADME, organism-based; conditions: in vivo, read-out: Vdss
[11] = Cmax in Sprague-Dawley rat at 3 mg/kg, po administered as single dose via gavage by LC-MS/MS analysis; format: ADME, organism-based; set-up: dose 3 mg/kg, route oral; conditions: in vivo
[12] = AUC (0 to 48 hrs) in Sprague-Dawley rat at 3 mg/kg, po administered as single dose via gavage by LC-MS/MS analysis; format: ADME, organism-based; set-up: dose 3 mg/kg, time < 48 hr, route oral; conditions: in vivo
[13] = Oral bioavailability in Sprague-Dawley rat at 3 mg/kg administered as single dose via gavage by LC-MS/MS analysis; format: ADME, organism-based; conditions: in vivo
[14] = AUC (0 to 48 hrs) in Sprague-Dawley rat at 1 mg/kg, iv administered as single dose by LC-MS/MS analysis; format: ADME, organism-based; set-up: dose 1 mg/kg, time < 48 hr, route intravenous; conditions: in vivo
[15] = Elimination half life in Sprague-Dawley rat at 1 mg/kg, iv administered as single dose by LC-MS/MS analysis; format: ADME, organism-based; conditions: in vivo, read-out: beta t1/2 (converted)
Rattus norvegicus [16] = test: Antihyperalgesic activity in Sprague-Dawley rat model of cisplatin-induced peripheral neuropathy assessed as increase in paw withdrawal latency at 30 mg/kg, po administered as single dose via gavage measured 4 hrs post dose by plantar test; format: functional, organism-based
Rattus norvegicus [17] = test: Antihyperalgesic activity in Sprague-Dawley rat model of cisplatin-induced peripheral neuropathy assessed as increase in paw withdrawal latency at 3 mg/kg, po administered as single dose via gavage measured 4 hrs post dose by plantar test; format: functional, organism-based
Rattus norvegicus [18] = test: Antihyperalgesic activity in Sprague-Dawley rat model of cisplatin-induced peripheral neuropathy assessed as increase in paw withdrawal latency at 30 mg/kg, po administered once daily via gavage for 6 days measured 24 hrs post last dose by plantar test; format: functional, organism-based
Rattus norvegicus [19] = test: Antihyperalgesic activity in Sprague-Dawley rat model of cisplatin-induced peripheral neuropathy assessed as increase in paw withdrawal latency at 30 mg/kg, po administered once daily via gavage for 7 days measured 4 hrs post last dose by plantar test; format: functional, organism-based
[20] = Oral bioavailability in Sprague-Dawley rat at 10 mg/kg administered as single dose via gavage by LC-MS/MS analysis; format: ADME, organism-based; conditions: in vivo
[21] = Cmax in Sprague-Dawley rat at 10 mg/kg, po administered as single dose via gavage by LC-MS/MS analysis; format: ADME, organism-based; set-up: dose 10 mg/kg, route oral; conditions: in vivo
[22] = AUC (0 to 48 hrs) in plasma of Sprague-Dawley rat at 10 mg/kg, po administered as single dose via gavage by LC-MS/MS analysis; format: ADME, organism-based; set-up: time < 48 hr, dose 10 mg/kg, route oral

Row | SMILES | Drug metabolism [2] | IC50 [3] | Drug metabolism [4] | IC50 [5] | other results
1 | O=C(NC1CCC(=Cc2cccc(Oc3ccc(C(F)(F)F)cn3)c2)CC1)c1cccnc1 (stereo not given) |  |  |  |  | inhibition [1]: 60%
2 | Nc1ccc(C(=O)NC2CCC(=Cc3cccc(Oc4ccc(C(F)(F)F)cn4)c3)CC2)cn1 (racemic) | 0.07 nmol/min/mg | 31.3 nM | 0.05 nmol/min/mg |  | 
3 | Nc1ncc(C(=O)NC2CCC(=Cc3cccc(Oc4ccc(C(F)(F)F)cn4)c3)CC2)cn1 (racemic) | 0.03 nmol/min/mg |  | 0.02 nmol/min/mg | 2 nM | 
4 | O=C(CCCCCCc1ccccc1)c1ncc(-c2ccccn2)o1 |  |  |  |  | Activity [6]: 30%
5 | O=C(NC1CCC(=Cc2cccc(Oc3ccc(C(F)(F)F)cn3)c2)CC1)c1ccncc1 (racemic) |  |  |  |  | inhibition [7]: 15%
6 | COc1cccc([C@@]2(O)CCCC[C@@H]2CN(C)C)c1 |  |  |  |  | Activity (Rattus norvegicus [8]): Active
7 | O=C(NC1CCC(=Cc2cccc(Oc3ccc(C(F)(F)F)cn3)c2)CC1)c1cnc2[nH]ccc2c1 (racemic) | 0.08 nmol/min/mg | 17.2 nM | 0.04 nmol/min/mg |  | clearance [9]: 2.2 mL/min/kg; Vd [10]: 1 L/kg; Cmax [11]: 190 nM; AUC(0-t) at 48 h [12]: 3 µM·h; bioavailability [13]: 7.2%; AUC(0-t) at 48 h [14]: 14.3 µM·h; half-life [15]: 7.3 h
8 | Nc1ncc(C(=O)NC2CCC(=Cc3cccc(Oc4ccc(C(F)(F)F)cn4)c3)CC2)cn1 (stereo not given) |  |  |  |  | Activity (Rattus norvegicus [16]): Active; Activity (Rattus norvegicus [17]): inactive; Activity (Rattus norvegicus [18]): Active; Activity (Rattus norvegicus [19]): Active
9 | O=C(NC1CCC(=Cc2cccc(Oc3ccc(C(F)(F)F)cn3)c2)CC1)c1ccc(-n2cccn2)nc1 (racemic) | 0.11 nmol/min/mg | 6.6 nM | 0.09 nmol/min/mg | 6.7 nM | clearance [9]: 2.4 mL/min/kg; Vd [10]: 4.6 L/kg; bioavailability [20]: 1.2%; Cmax [21]: 90 nM; AUC(0-t) at 48 h [22]: 0.9 µM·h; AUC(0-t) at 48 h [14]: 8 µM·h; half-life [15]: > 10 h
10 | O=C(NC1CCC(=Cc2cccc(Oc3ccc(C(F)(F)F)cn3)c2)CC1)c1cccnc1 (racemic) | 0.06 nmol/min/mg |  | 0.06 nmol/min/mg | 2.2 nM | 
11 | O=C(NC1CCC(=Cc2cccc(Oc3ccc(C(F)(F)F)cn3)c2)CC1)c1cncnc1 (racemic) | < 0.04 nmol/min/mg |  | 0.07 nmol/min/mg |  | 
12 | O=C(NC1CCC(=Cc2cccc(Oc3ccc(C(F)(F)F)cn3)c2)CC1)c1cc[nH]n1 (racemic) |  | 266 nM |  |  | 
13 | Nc1ncc(C(=O)NC2CCC(=Cc3cccc(Oc4ccc(C(F)(F)F)cn4)c3)CC2)cc1Cl (racemic) | 0.06 nmol/min/mg | 52 nM | < 0.04 nmol/min/mg | 4 nM | 
